Patent US9446127B2, “Compositions including androgen receptor degradation (ARD) enhancers and methods of prophylactic or therapeutic treatment of skin disorders and hair loss” (AndroScience Corporation, priority 2007, dated 2016)
Values joined by “and” are separate entries in the source; they are usually repeats but may differ in a detail not shown here. Equal values may be shown once.

Key:
LNCaP cells = test: LNCaP cell growth assay (cell count); format: cell-based, human; conditions: 5 μM
Description: LNCaP cells express an endogenous mutant AR that is found in prostate cancer patients. This clinically relevant cell model was used to study ASC-J9's effect in suppressing prostate cancer cell growth. Cells were plated, at a density of approximate 6.5×10^4 cells/well, into 6-well tissue culture dishes. Two days later, the complete medium was aspired and 10% charcoal/dextran-treated (hormone depleted) serum-containing medium was added. Test compound, ASC-J9 was then added to the medium at a final concentration of 5 μM with or without 1 nM of DHT. For vehicle control, the same amount of DMSO was added into the medium. For the subsequent 5 days, the medium was aspired once per day, and replaced with fresh medium containing test compound and/or DHT. At designated times, a portion of cells was harvested by trypsinization, and cell count was performed using a hemacytometer.

LNCaP tumor = test: LNCaP xenograft tumor growth in nude mice; format: in vivo; conditions: 100 mg/kg/day ip three times per week, 7 weeks
Description: In the related in vivo studies, LNCaP human prostate tumor cells are xenografted into nude mice by subcutaneous injection (2×10^6 per site). Mice are subsequently treated, by intraperitoneal injection, with either the vehicle solution as control or the test compounds (ASC-J9 at a dose of 100 milligrams per kilogram body weight), three times a week for 7 weeks. Tumor volume is measured twice a week over the next 7 weeks. […] Data in FIG. 12 show two nude mice received xenografted LNCaP tumor and one treated with vehicle solution (left) and the other with ASC-J9 (right). A significant reduction in tumor size and PSA content in plasma were detected in animal received ASC-J9 treatment. Such results can be taken as a strong indication that the suppression of AR activity and the resulting reduction of tumor growth induced by AR-degrading compounds such as ASC-J9, may be translated into a practical use for treating or preventing diseases and disorders related to AR activity, such as prostate and other cancers.
Two million LNCaP tumor cells were inoculated, subcutaneously, into the left flank of nude mice. In the experimental animals, the nude mice were give an intraperitoneal (ip) injection of compound ASC-J9 at 100 mg/kg/day three times per week or with vehicle control only. After 7 weeks of treatment the tumors were excised, weighed and compared. […] In addition, PSA (prostate specific antigen) level in plasma from animal treated with ASC-J9 reduced 90% (reduce from 57.0 ng/ml to 7.6 ng/ml).

acne-affected skin = test: Topical treatment of acne in human volunteers; format: in vivo
Description: In this example, human subjects were successfully treated for acne by topical administration of a cream containing the compound ASC-J15 or ASC-J9, which were shown in the previous examples to ameliorate the effects of the androgen receptor-activated pathway, specifically by inducing degradation of the androgen receptor. A basic carrier formulation was prepared by mixing two solutions: (1) a water-based solution containing aristoflex avc, Osmocide, Tween 20, and water; and (2) an oil-based solution containing isopropyl myristate, coconut dienthanolamine, ethylparaben, isobutylparaben, methylparaben, and propylparaben. […]
Male and female human volunteers ranging in age from 15 years to 52 years were treated by topical application of the test compounds to the acne-affected skin. Subjects were asked to apply the cream to the acne-affected areas twice a day (once in the morning and once in the evening). […] The results are given in Table 2, and a representative result (photo pictures) from one volunteer is depicted in FIG. 14. FIG. 14A depicts the volunteer's forehead and FIG. 14B depicts the volunteer's back.

## COc1ccc(C=CC(=O)C=C(O)C=Cc2ccc(OC)c(OC)c2)cc1OC [ASC-J9, 5-hydroxy-1,7-bis(3,4-dimethoxyphenyl)-1,4,6-heptatrien-3-one]
LNCaP cells; 1 nM DHT, 5 days
  LNCaP cell growth in the presence of DHT: good potency to decrease LNCaP cell growth
LNCaP cells; end of 5-day incubation
  viable cells: only a minimal number of viable cells
LNCaP cells; without DHT, starting from Day 2, vs vehicle control
  cell number per well: marked decrease in cell number
LNCaP tumor
  reduction of PSA level in plasma: 90%
LNCaP tumor; vs vehicle control
  reduction in tumor size: 75%
LNCaP tumor; reduced from 57.0 ng/ml
  PSA (prostate specific antigen) level in plasma: 7.6 ng/mL
LNCaP tumor; vehicle control 0.694 g
  tumor weight: 0.172 g
acne-affected skin; topical cream 1 micromolar, one line per subject (age, sex, frequency in Table 2)
  Recovery Time: 2 weeks and 1 week weeks
acne-affected skin; topical cream 2.5 micromolar, twice a day, subject 24
  Recovery Time: 1 week
acne-affected skin; topical, 2.5 micromolar forehead (FIG. 14A), 625 μM back (FIG. 14B)
  skin condition of acne-affected male volunteers (photographs): visible improvement to skin condition
